The values that follow are results of earlier work, collected in article PMC4310643 (ACS Nano, 2015).

The subject of this data set is ABIR.

For “Arg-Gly-Asp-DPhe-Lys (head to tail) [cRGDfK, cyclic peptide, arginine-glycine-aspartic acid-(D)phenylalanine-lysine]”, the “binding affinity to ABIR” value was “high binding affinity to ABIR”.
